The results in this text go back to patent publication US8921373B2, “Compounds having TRPV1 antagonistic activity and uses thereof” (Shionogi & Co., Ltd., priority 2010, dated 2014).

Each structure is given as a SMILES string.

Data set [1] deals with T1, human recombinant TRPV1 (Homo sapiens (Human), UniProt Q8NER1). The data set is described as follows: TRPV1 pH-Based Assay (Protocol 2, Ca2+ response in TRPV1/CHO cells, Fura-2). It counts as cell-based. Particulars: TRPV1/CHO cells, pH 5.0-5.1; read-out: IC50 value by the pH-Based Assay. Put shortly:
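CHO cells stably expressing human TRPV1, Fura-2 loaded, given compound (1% DMSO in 10× stock) before acid challenge to final pH 5.0-5.1 (3.2 or 3.3 mM H2SO4). 340/380 nm ratio recorded at 0.5 Hz; maximal ratio after agonist addition versus 16-point baseline used as response.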

Data set [2] in a line: Measurement of body temperature increase (rectal body temperature). Particulars: Crl/SD rats, oral; for Body temperature increase: 1 mg/mL at 10 mL/kg; for Body temperature increase ΔTb: 1 mg/mL in 0.5% methylcellulose at 10 mL/kg, difference from vehicle group average. The data set is classed as in vivo, rat. As for the experimental part:
Test Animals: Selection of rats (Crl/SD rats, 7 weeks, male) for this study was based on rectal body temperature measured during the morning of the day of dosing. In addition, animals selected for this study were acclimated to both the rectal measurement procedure and to being handled and dosed to minimize spontaneous, stress-induced, increases in body temperature. The study was conducted in the animal care laboratories where the room temperature and humidity were kept. The rats were free to move and food and water during the study. Each rat was numbered with color line on the tail, housed in each cage and permitted the normal range of movement. Immediately before each body temperature was measured, they transferred to a single cage at each measurement. To reduce stress which affected the body temperature, the rats were covered with towels at the measurement. The thermistor probe was then carefully inserted into the rectum of each rat and left in place until the value on the digital display had stabilized.
Assays: On the day before dosing, rectal body temperatures were measured at 9:00, 10:00, 11:00, 12:30, 13:30, 14:30 and 15:30 to familiarize the animals with the measurement procedure prior to administration of the test or control treatments. The rats were also dosed by oral gavage without vehicle at 12:30 to acclimate and familiarized the animals with the handling and dosing procedure.
On the day of dosing, only rats whose rectal body temperatures were within the range of 37.0° C. to 37.7° C. were selected for this study. Rectal body temperatures were measured at 9:00, 10:00 and 11:00. Rats whose rectal body temperatures were over 37.9° C. at 10:00, and were outside the range of 37.0° C. to 37.7° C. at 11:00 were excluded from the study. The selected rats were divided to several groups based on their rectal body temperatures at 11:00. Rectal body temperatures of the selected rats were measured again at 12:30, and any rats whose rectal body temperature was 38.0° C. or greater were excluded from the study.
Following the group assignment, test compounds or vehicle was administrated to the rats. Each test compound was dissolved in 0.5% methylcellurose and the final concentration of the compound was adjusted to 1 mg/mL. Test compound was orally administrated in a volume 10 mL/kg once. 10 mL/kg of vehicle (0.5% methylcellurose) was administered to the vehicle group. The rectal body temperatures were measured 0.5, 1 and 2 hrs after the administration. The study was conducted in the animal care laboratories where the room temperature and humidity were kept.
Body temperature increase (ΔTb) was calculated from the difference from an average of the vehicle group at each time point.

The target of data set [3] is T1, human recombinant TRPV1. The data set is described as follows: TRPV1 Capsaicin-Based Assay (Protocol 2, TRPV1/CHO cells, Fluo-4, FLIPR). It counts as cell-based. To be noted: TRPV1/CHO cells, capsaicin 100 nM final; read-out: IC50 value by the Capsaicin-Based Assay. The protocol:
For Protocol 2, a Chinese Hamster Ovary cell line (CHO) that has been engineered to constitutively express human recombinant TRPV1 was used (TRPV1/CHO cells). The TRPV1/CHO cell line was generated as described below.
One day prior to assay, TRPV1/CHO cells were seeded in 96-well clear-bottom black plates (20,000 cells/well) in growth media. On the day of the experiment, the cells were washed with 0.2 mL 1× Hank's Balanced Salt Solution (Life Technologies) containing 1.6 mM CaCl2 and 20 mM HEPES, pH 7.4 (“wash buffer”). Subsequently, the cells were loaded by incubation in 0.1 mL of wash buffer containing Fluo-4 at 3 μM final concentration. After 1 hour, the cells were washed twice with 0.2 mL wash buffer and resuspended in 0.1 mL wash buffer. The plates were then transferred to a Fluorescence Imaging Plate Reader (Molecular Devices). Fluorescence intensity was monitored for 15 seconds to establish a baseline. Subsequently, test compounds diluted in assay buffer (1× Hank's Balanced Salt Solution containing 1 mM CaCl2 and 20 mM HEPES, pH 7.4) containing 1% DMSO were added to the cell plate and fluorescence was monitored for 2 minutes. […] Human TRPV1 was then activated by the addition of 50 μL capsaicin (100 nM final concentration) and plates incubated for an additional 3 min. Data were collected over the entire time course and analyzed using Excel and the curve-fitting formula GraphPad Prism.

T1 sequence (Q8NER1 whole entry): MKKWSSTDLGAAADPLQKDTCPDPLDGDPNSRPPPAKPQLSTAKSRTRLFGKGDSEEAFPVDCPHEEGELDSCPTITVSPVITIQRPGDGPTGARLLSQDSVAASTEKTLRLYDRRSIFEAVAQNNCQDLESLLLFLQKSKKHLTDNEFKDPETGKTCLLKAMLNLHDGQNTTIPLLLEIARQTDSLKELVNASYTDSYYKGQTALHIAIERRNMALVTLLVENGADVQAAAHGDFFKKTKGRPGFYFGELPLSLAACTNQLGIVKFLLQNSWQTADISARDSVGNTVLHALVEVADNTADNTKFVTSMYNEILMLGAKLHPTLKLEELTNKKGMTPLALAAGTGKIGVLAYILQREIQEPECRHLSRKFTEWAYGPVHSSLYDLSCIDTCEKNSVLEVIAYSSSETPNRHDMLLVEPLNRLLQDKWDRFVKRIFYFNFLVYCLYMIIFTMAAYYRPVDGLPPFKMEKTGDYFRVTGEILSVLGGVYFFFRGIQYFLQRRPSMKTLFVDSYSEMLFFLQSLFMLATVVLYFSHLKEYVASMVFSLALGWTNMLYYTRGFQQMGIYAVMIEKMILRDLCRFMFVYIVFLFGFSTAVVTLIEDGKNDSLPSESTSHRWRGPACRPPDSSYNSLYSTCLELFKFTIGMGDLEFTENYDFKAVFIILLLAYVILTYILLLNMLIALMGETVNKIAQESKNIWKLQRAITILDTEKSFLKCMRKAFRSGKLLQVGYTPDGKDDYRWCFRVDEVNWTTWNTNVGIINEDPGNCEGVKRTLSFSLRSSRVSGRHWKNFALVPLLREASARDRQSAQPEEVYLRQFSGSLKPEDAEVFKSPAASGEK

Turning to `Cc1cc(NC(=O)N2CC=C(c3ncc(C[C@H](O)CO)cc3F)CC2)ccc1C(F)(F)F` [ABY, (S)-5-(2,3-dihydroxypropyl)-3-fluoro-N-(3-methyl-4-(trifluoromethyl)phenyl)-5′,6′-dihydro-[2,4′-bipyridine]-1′(2′H)-carboxamide], the IC50 on human recombinant TRPV1 [1] and at human recombinant TRPV1 [3] was not above 50 nM in each case. In addition, the Body temperature increase entry in data set [2] was “less than 0.5 °C”.
Take `Cc1cc(NC(=O)N2CC=C(c3ncc(C[C@@H](O)CO)cc3F)CC2)ccc1C(F)(F)F` [ACA, (R)-5-(2,3-dihydroxypropyl)-3-fluoro-N-(3-methyl-4-(trifluoro-methyl)phenyl)-5′,6′-dihydro-[2,4′-bipyridine]-1′(2′H)-carboxamide]: the IC50 (usually the point on the concentration scale where inhibition reaches its midpoint) at human recombinant TRPV1 [1] is not above 50 nM. Also, the Body temperature increase entry in data set [2] is “less than 0.5 °C”.
In the case of `Cc1cc(NC(=O)N2CCC(F)(c3ncc(C[C@@H](O)CO)cc3F)CC2)ccc1OC(F)(F)F` [ACP, (R)-4-(5-(2,3-dihydroxypropyl)-3-fluoropyridin-2-yl)-4-fluoro-N-(3-methyl-4-(trifluoromethoxy)phenyl)piperidine-1-carboxamide], the IC50 on human recombinant TRPV1 [1] and on human recombinant TRPV1 [3] was not above 50 nM throughout. Besides, the “Body temperature increase ΔTb” value in data set [2] is 0.16 °C.
Regarding `O=C(Nc1nc2ccc(F)cc2s1)N1CCN(c2ncc(C[C@@H](O)CO)cc2Cl)CC1` [ACV, (R)-4-(3-chloro-5-(2,3-dihydroxypropyl)pyridin-2-yl)-N-(6-fluorobenzo[d]thiazol-2-yl)piperazine-1-carboxamide], the IC50 on human recombinant TRPV1 [1] and on human recombinant TRPV1 [3] was not above 50 nM each time. For the same compound, the Body temperature increase entry in data set [2] was “less than 0.5 °C”.
For the compound `O=C(Nc1nc2ccc(F)cc2s1)N1CCN(c2ncc(C[C@@H](O)CO)cc2F)CC1` [ACW, (R)-4-(5-(2,3-dihydroxypropyl)-3-fluoropyridin-2-yl)-N-(6-fluorobenzo[d]-thiazol-2-yl)piperazine-1-carboxamide], the IC50 at human recombinant TRPV1 [1] and at human recombinant TRPV1 [3] was not above 50 nM in each case. For the same compound, the Body temperature increase entry in data set [2] is “less than 0.5 °C”.
Regarding `O=C(Nc1nc2ccc(Cl)cc2s1)N1CCN(c2ncc(C[C@@H](O)CO)cc2F)CC1` [ACX, (R)-N-(6-chlorobenzo[d]thiazol-2-yl)-4-(5-(2,3-dihydroxypropyl)-3-fluoropyridin-2-yl)piperazine-1-carboxamide], the IC50 on human recombinant TRPV1 [1] and at human recombinant TRPV1 [3] was not above 50 nM in each case. For the same compound, the Body temperature increase result in data set [2] was “less than 0.5 °C”.
Take `Cc1ccc2nc(NC(=O)N3CCN(c4ncc(C[C@@H](O)CO)cc4F)CC3)sc2c1` [ACY, (R)-4-(5-(2,3-dihydroxypropyl)-3-fluoropyridin-2-yl)-N-(6-methylbenzo[d]-thiazol-2-yl)piperazine-1-carboxamide]: the IC50 at human recombinant TRPV1 [1] and on human recombinant TRPV1 [3] was not above 50 nM in each case. The Body temperature increase entry in data set [2] was “less than 0.5 °C”.
For the compound `Cc1cc2nc(NC(=O)N3CCN(c4ncc(C[C@@H](O)CO)cc4F)CC3)sc2cc1C` [ACZ, (R)-4-(5-(2,3-dihydroxypropyl)-3-fluoropyridin-2-yl)-N-(5,6-dimethylbenzo[d]thiazol-2-yl)piperazine-1-carboxamide], the IC50 at human recombinant TRPV1 [1] is not above 50 nM. Further, in data set [2], the “Body temperature increase ΔTb” value came out at 0.24 °C.
On to `O=C(Nc1nc2ccc(F)cc2s1)N1CCN(c2ncc(C[C@H](O)CO)cc2F)CC1` [ADD, (S)-4-(5-(2,3-dihydroxypropyl)-3-fluoropyridin-2-yl)-N-(6-fluorobenzo[d]-thiazol-2-yl)piperazine-1-carboxamide], for which, at human recombinant TRPV1 [1], the IC50 was not above 50 nM. Moreover, the Body temperature increase result in data set [2] was “less than 0.5 °C”.
On to `O=C(Nc1nc2ccc(Cl)cc2s1)N1CCN(c2ncc(C[C@H](O)CO)cc2F)CC1` [ADE, (S)-N-(6-chlorobenzo[d]thiazol-2-yl)-4-(5-(2,3-dihydroxypropyl)-3-fluoropyridin-2-yl)piperazine-1-carboxamide], for which the IC50 at human recombinant TRPV1 [1] and on human recombinant TRPV1 [3] was not above 50 nM in each case. For the same compound, in data set [2], the Body temperature increase entry was “less than 0.5 °C”.
`C[C@@H]1CN(c2ncc(C[C@@H](O)CO)cc2F)CCN1C(=O)Nc1nc2ccc(Cl)cc2s1` [ADK, (R)-N-(6-chlorobenzo[d]thiazol-2-yl)-4-{5-[(R)-2,3-dihydroxypropyl]-3-fluoropyridin-2-yl}-2-methylpiperazine-1-carboxamide]: the IC50 on human recombinant TRPV1 [1] is not above 50 nM. The Body temperature increase entry in data set [2] was “less than 0.5 °C”.
As for `O=C(Nc1nc2ccc(F)cc2s1)N1CCN(c2ncc(C[C@H](O)CO)cc2Cl)CC1` [ADR], the IC50 at human recombinant TRPV1 [1] and on human recombinant TRPV1 [3] was not above 50 nM in each case. Further, the Body temperature increase entry in data set [2] is “less than 0.5 °C”.
For the compound `O=C(Nc1nc2ccc(Cl)cc2s1)N1CCN(c2ncc(C[C@@H](O)CO)cc2Cl)CC1` [ADT], the IC50 on human recombinant TRPV1 [1] and at human recombinant TRPV1 [3] was not above 50 nM in each case. The Body temperature increase entry in data set [2] was “less than 0.5 °C”.
On to `Cc1ccc2nc(NC(=O)N3CCN(c4ncc(C[C@@H](O)CO)cc4Cl)CC3)sc2c1` [ADU], for which the 50% inhibitory concentration (IC50) on human recombinant TRPV1 [1] and on human recombinant TRPV1 [3] was not above 50 nM throughout. For the same compound, the Body temperature increase entry in data set [2] is “less than 0.5 °C”.
In the case of `O=C(Nc1nc2ccccc2s1)N1CCN(c2ncc(C[C@@H](O)CO)cc2Cl)CC1` [ADV], the half-maximal inhibitory concentration (IC50) at human recombinant TRPV1 [1] was not above 50 nM. Moreover, the Body temperature increase result in data set [2] is “less than 0.5 °C”.
As to `O=C(Nc1nc2ccc(Cl)cc2s1)N1CCN(c2ncc(C[C@H](O)CO)cc2Cl)CC1` [ADW], the IC50 on human recombinant TRPV1 [1] and at human recombinant TRPV1 [3] was not above 50 nM each time. Besides, the Body temperature increase result in data set [2] was “less than 0.5 °C”.
With `Cc1ccc2nc(NC(=O)N3CCN(c4ncc(C[C@H](O)CO)cc4Cl)CC3)sc2c1` [ADX], in data set [2], the Body temperature increase result was “less than 0.5 °C”. Also, the half-inhibitory concentration (IC50) on human recombinant TRPV1 [3] is not above 50 nM.
The like results for `C[C@H]1CN(c2ncc(C[C@H](O)CO)cc2Cl)CCN1C(=O)Nc1nc2ccc(Cl)cc2s1` [AEG] were, in that order, “less than 0.5 °C” and not above 50 nM.
